Literature values in patent US11759428B2, “Pharmaceutical formulation comprising esomeprazole and sodium bicarbonate” (CHONG KUN DANG PHARMACEUTICAL CORP., priority 2018, dated 2023).

Conditions: aqueous solution having 3 or lower of pH

degradation half-life: less than 10 minutes
SMILES: COc1ccc2nc([S@@+]([O-])Cc3ncc(C)c(OC)c3C)[nH]c2c1 [esomeprazole, (S)-5-methoxy-2-[(4-methoxy-3,5-dimethyl-2-pyridinyl)-methyl]sulfinyl-1H-benzimid azol]
